This is an account of results in publication PMC10828444, “Selective inhibition of overactive warmth-sensitive Ca^2+-permeable TRPV3 channels by antispasmodic agent flopropione for alleviation of skin inflammation” (The Journal of Biological Chemistry, 2023).

For one test, the target named is T1, TRPV3-E501A mutant (Homo sapiens, UniProt Q8NET8, E501A).
T1 construct: expressed in transfected cells; host or cells: HEK293
T1 sequence (Q8NET8 1-790 E501A): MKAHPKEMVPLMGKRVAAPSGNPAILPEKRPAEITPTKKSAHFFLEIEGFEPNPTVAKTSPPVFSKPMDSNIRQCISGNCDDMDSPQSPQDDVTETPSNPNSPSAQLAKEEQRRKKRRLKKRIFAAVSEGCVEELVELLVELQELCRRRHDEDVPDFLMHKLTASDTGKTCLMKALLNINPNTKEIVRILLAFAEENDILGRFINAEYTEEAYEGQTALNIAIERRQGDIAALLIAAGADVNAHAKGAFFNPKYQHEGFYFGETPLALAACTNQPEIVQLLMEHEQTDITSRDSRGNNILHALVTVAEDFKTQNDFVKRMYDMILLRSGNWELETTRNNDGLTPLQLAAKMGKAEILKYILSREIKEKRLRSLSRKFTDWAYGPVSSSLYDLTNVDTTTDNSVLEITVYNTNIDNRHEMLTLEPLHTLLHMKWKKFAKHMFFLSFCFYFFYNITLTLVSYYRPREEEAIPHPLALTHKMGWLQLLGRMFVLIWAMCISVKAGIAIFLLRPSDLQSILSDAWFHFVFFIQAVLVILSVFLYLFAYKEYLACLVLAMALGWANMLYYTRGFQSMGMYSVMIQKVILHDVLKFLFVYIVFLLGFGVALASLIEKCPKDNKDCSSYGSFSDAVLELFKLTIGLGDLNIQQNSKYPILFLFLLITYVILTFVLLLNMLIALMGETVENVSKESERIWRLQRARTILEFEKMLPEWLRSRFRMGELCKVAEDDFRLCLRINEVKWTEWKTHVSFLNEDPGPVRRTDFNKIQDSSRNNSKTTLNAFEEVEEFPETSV
Kind of test: Whole-cell and single-channel recordings of TRPV3-E501A mutant. The following applies: 100 μM flopropione whole-cell (50 μM 2-APB); 50 μM single-channel (30 μM 2-APB). It counts as cell-based. The procedure: HEK293 cells were cultured in Dulbecco’s modified Eagle’s medium (DMEM, Gibco) containing 4.5 g/L D-glucose supplemented with 10% fetal bovine serum based at 37 °C with 5% CO2. For whole-cell patch-clamp recordings, cells were grown in glass coverslips for 24 h before transient transfections with 3000 ng cDNAs of hTRPV3 (gene accession number BC104866.1), hTRPV1 (accession number NM_080704.3), mTRPV2 (accession number NM_011706.2), hTRPV4 (accession number NM_021625.5), hTRPA1 (accession number NM_007332.3) and hTRPM8 (accession number NM_024080.5) into HEK293 cells grown in a 35-mm cell culture dish using Lipofectamine 2000 (Invitrogen). Cells were used 18 ∼ 24 h after transfection. All WT or mutant hTRPV3 plasmids were validated by DNA sequencing.
Whole-cell patch clamp recordings of wild-type and mutants were carried out at room temperature using the HEKA EPC10 amplifier powered by PatchMaster software (HEKA) or MultiClamp 700B amplifier driven by Clampex 11.0.3 software. The borosilicate glass pipettes were pulled and fire-polished to 3∼6 MΩ using a DMZ universal electrode puller (Zeitz-Instruments, GmbH). Pipette solution and bath solution both contained (in mM): 130 NaCl, three HEPES, and 0.2 EDTA (pH = 7.4). Cell membrane potential was held at 0 mV, currents were recorded at a voltage ramp from −100 to +100 mV for 500-ms and analyzed at ±80 mV. […]

Test [1] has as its system DNFB-induced dorsal skin inflammation. Description: Mouse model of dorsal skin inflammation (atopic dermatitis) induced by DNFB. In kind it is in vivo, C57BL/6J mice. On the procedure:
(§1) Mice were placed in a gas anesthesia device (SurgiVet) for anesthesia before the hair on the back was removed with a razor, followed by the application of an appropriate amount of hair removal cream to gently shave off the remaining hair. For generation of atopic dermatitis and ear swelling, chemical skin sensitizer DNFB (1-Fluoro-2,4-dinitrobenzene), commonly known as Sanger’s Reagent, was dissolved in a solvent (acetone/olive oil = 4/1, v/v) and 0.5% DNFB in 100 μl was applied once topically to the back and right ear for skin sensitization 1 day after acclimatization for hair removal ([43]) without any treatment for next 3 days. On the fifth and sixth days, 0.2% DNFB in 50 μl was applied topically once a day for 2 days for challenge before different concentrations of flopropione in 100 μl were topically applied once a day for four consecutive days. First application of topical flopropione started half an hour after the last application of 0.2% DNFB challenge. For the effect of flopropione on skin inflammation, topical flopropione (0.1 mM, 1 mM or 10 mM) in 100 μl was applied into ear and shaved area of dorsal skin by swabbing once a day for four consecutive days.
(§2) The score contents and criteria include (1): skin erythematous/bleeding (2), skin scratches/erosion (3), skin edema (4), skin scaling or lichenoid change ([44]). Each symptom was scored from 0 to 3 (none, 0; mild, one; moderate, two; severe, (3). The final score was defined as the sum of individual scores on a scale from 0 to 12. Mouse ear thickness was measured once a day for continuous 5 days with the first measurement of ear thickness 30 min after the last application of 0.2% DNFB using vernier caliper.
Mice were anesthetized with 1.0% isoflurane before sacrifice 24 h after the last treatment ([31], [32], [43]). Mouse dorsal skin was removed with scissors and forceps before fixed with 4% paraformaldehyde. Paraffin-embedded tissues were sectioned and stained with hematoxylin and eosin. Stained sections were observed using bright-field microscopy (ECLIPSE Ti-S, Nikon) and CCD-camera (DS-Ri2, Nikon).

Test [2] has as its system DNFB-induced ear swelling. Description: Mouse model of ear swelling induced by DNFB. It counts as in vivo, C57BL/6J mice. The following applies: topical 0.1, 1, 10 mM on right ear for 4 days, vs DNFB alone. On the procedure:
as §1, with “First application of topical flopropione started half an hour after the last application of 0.2% DNFB challenge. For the effect of flopropione on skin inflammation, topical flopropione (0.1 mM, 1 mM or 10 mM) in 100 μl was applied into ear and shaved area of dorsal skin by swabbing once a day for four consecutive days.” left out
as §2

`CCC(=O)c1c(O)cc(O)cc1O` [flopropione]: the “effect of E501A mutation on inhibition by flopropione” value at TRPV3-E501A mutant is listed as “significantly reduced TRPV3 inhibition”. The “dorsal skin inflammation (phenotype)” value in test [1] (topical 0.1–10 mM, once a day for 4 days, vs DNFB alone) was “alleviated the skin inflammation in concentration-dependent manner”. Besides, the dermatitis scores entry in test [1] (topical 0.1–10 mM, vs DNFB alone group, n = 5) was “significantly reduced the dermatitis scores”. Besides, the “skin hyperkeratosis and lesion (histology, dorsal skin thickness)” value in test [1] (topical 0.1 ∼ 10 mM, H&E sections, vs DNFB alone) was “reduced mouse skin hyperkeratosis and lesion”. The “ear swelling (ear thickness, vernier caliper)” value in test [2] is recorded as “significantly reduced ear swelling”.
